Measurements reported in ChEMBL document CHEMBL6092152, “Overview of PRMT1 modulators: Inhibitors and degraders” (Eur J Med Chem, 2024).
pIC50: −log10 of the molar value. One block for each compound: values may come before it. *1 amine or outer side, *2 acyl side, *3 side chain or, on linkers, in order; H or OH if unused. Where a SMILES comes first, the peptide text is derived from it. [ ]: non-standard residue; d: D form. X2 = N=C(NCCC[C@H](N[*:1])C(=O)[*:2])NCCC[C@H]1O[C@@H](n2cnc3c(N)ncnc32)[C@H](O)[C@@H]1O; Gly(N-(CH2)3-guanidino) = N=C(N)NCCCNCC(=O)O; X1 = N=C(CCl)NCCCN(CC(=O)[*:2])[*:1]; Gly(N-CH2CH2OH) = O=C(O)CNCCO; Nleu = CC(C)CNCC(=O)O; Nlys = NCCCCNCC(=O)O; Sar = CNCC(=O)O

Assays:
[1] = molecular target: T1, Protein arginine N-methyltransferase 1 (Homo sapiens, UniProt Q99873); experiment: Inhibition of 6His-tagged PRMT1 (11 to 353 residues) (unknown origin) extracted from Escherichia coli BL21 (DE3) cells
T1 sequence (Q99873 whole entry, the tested form may be a part): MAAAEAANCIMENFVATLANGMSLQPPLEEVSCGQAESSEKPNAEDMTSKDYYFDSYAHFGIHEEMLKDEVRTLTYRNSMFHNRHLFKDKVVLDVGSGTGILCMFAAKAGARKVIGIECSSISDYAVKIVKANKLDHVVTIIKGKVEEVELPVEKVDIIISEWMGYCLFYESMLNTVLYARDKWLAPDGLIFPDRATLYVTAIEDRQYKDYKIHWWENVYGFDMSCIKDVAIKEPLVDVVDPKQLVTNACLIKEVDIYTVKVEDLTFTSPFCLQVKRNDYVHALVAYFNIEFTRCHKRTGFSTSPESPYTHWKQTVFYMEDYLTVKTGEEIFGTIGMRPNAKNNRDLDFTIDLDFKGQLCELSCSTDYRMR

[2] = molecular target: T1, Protein arginine N-methyltransferase 1; experiment: Inhibition of PRMT1 (unknown origin)
[3] = molecular target: T2, Histone-arginine methyltransferase CARM1 (Homo sapiens, UniProt Q86X55); experiment: Inhibition of PRMT4 (unknown origin)
T2 sequence (Q86X55 whole entry): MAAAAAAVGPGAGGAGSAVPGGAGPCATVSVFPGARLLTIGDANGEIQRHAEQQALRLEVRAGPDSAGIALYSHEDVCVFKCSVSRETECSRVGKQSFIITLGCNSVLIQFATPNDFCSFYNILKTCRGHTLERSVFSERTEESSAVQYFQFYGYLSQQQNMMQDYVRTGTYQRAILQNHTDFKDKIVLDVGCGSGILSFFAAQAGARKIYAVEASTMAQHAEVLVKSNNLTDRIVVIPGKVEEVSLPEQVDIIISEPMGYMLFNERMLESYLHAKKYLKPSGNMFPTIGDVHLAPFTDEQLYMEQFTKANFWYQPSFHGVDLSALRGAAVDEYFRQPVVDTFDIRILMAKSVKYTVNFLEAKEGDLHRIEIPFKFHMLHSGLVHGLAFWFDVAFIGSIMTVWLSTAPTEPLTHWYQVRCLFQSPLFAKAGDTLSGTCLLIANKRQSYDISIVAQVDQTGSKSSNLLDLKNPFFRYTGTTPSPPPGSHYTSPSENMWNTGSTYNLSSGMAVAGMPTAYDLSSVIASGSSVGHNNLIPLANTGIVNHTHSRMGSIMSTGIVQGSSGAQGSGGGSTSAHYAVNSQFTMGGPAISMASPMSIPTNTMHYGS

[4] = molecular target: Protein arginine N-methyltransferase 5 (Homo sapiens, UniProt O14744); experiment: Inhibition of PRMT5 (unknown origin)
Protein arginine N-methyltransferase 5, sequence (O14744 whole entry): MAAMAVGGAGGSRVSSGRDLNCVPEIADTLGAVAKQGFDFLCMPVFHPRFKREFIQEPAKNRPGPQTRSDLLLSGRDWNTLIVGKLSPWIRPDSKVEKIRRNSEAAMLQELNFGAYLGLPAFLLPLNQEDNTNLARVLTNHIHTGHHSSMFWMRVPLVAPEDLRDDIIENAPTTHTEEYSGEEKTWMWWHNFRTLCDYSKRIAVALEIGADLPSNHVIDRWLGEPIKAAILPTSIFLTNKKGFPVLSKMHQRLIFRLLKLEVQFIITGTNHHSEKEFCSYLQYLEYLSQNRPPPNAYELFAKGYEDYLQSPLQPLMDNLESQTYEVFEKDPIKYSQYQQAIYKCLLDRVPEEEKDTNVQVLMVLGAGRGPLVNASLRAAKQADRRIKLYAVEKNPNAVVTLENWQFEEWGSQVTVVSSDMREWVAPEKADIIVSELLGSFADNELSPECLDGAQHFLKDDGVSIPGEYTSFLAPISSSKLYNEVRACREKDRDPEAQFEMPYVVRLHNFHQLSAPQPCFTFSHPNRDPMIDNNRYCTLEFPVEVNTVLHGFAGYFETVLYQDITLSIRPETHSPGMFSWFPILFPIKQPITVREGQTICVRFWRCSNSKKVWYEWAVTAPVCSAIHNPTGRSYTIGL

[5] = molecular target: T3, Protein arginine N-methyltransferase 7 (Homo sapiens, UniProt Q9NVM4); experiment: Inhibition of PRMT7 (unknown origin)
T3 sequence (Q9NVM4 whole entry): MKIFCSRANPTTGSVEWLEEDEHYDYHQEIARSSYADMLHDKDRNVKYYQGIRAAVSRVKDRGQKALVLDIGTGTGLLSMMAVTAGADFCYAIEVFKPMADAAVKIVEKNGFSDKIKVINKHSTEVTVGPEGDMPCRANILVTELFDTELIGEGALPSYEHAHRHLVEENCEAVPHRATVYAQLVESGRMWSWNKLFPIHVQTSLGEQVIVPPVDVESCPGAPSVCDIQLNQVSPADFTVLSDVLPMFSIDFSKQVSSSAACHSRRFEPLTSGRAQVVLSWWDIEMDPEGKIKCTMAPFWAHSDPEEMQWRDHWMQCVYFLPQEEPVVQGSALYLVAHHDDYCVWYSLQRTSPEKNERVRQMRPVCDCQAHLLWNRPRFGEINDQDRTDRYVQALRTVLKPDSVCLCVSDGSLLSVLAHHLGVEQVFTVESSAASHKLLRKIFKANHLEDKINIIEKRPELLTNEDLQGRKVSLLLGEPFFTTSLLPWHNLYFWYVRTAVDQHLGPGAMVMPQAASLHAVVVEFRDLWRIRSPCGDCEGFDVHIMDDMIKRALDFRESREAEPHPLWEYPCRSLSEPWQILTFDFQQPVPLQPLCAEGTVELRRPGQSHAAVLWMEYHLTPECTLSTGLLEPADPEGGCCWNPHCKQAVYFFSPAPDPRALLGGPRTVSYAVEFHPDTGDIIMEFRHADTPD

[6] = molecular target: T1, Protein arginine N-methyltransferase 1; experiment: Inhibition of His-tagged PRMT1 (unknown origin) extracted from Escherichia coli BL21 (DE3) cells
[7] = molecular target: Protein arginine N-methyltransferase 6 (Homo sapiens, UniProt Q96LA8); experiment: Inhibition of PRMT6 (unknown origin)
Protein arginine N-methyltransferase 6, sequence (Q96LA8 whole entry): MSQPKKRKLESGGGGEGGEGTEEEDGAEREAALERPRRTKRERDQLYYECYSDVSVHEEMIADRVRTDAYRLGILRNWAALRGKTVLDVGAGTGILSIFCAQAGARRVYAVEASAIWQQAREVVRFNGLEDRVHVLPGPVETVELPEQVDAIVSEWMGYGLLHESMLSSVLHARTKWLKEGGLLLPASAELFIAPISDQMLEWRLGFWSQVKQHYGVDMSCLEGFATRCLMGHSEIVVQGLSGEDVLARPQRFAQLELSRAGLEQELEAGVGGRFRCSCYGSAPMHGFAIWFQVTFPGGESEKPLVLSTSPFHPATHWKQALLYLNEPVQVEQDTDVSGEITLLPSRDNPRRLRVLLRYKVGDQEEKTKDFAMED

[8] = molecular target: T1, Protein arginine N-methyltransferase 1; experiment: Inhibition of human PRMT1 assessed as methyltransferase activity using Histone H4 /H4 (1-15)-Biotin as substrate
MDA-MB-468 = experiment: Cytotoxicity against human MDA-MB-468 cells assessed as reduction in cell viability incubated for 72 hrs by cell-titer blue assay; format: functional, cell-based; settings: MDA-MB-468, 72 h
HCT-116 = experiment: Cytotoxicity against human HCT-116 cells assessed as reduction in cell viability; format: functional, cell-based

Structure (SMILES): NS(=O)(=O)c1ccc(CCNC/C=C/c2ccccc2)cc1
pIC50 [1]: 4.58

Structure (SMILES): O=C1Nc2cnc(Nc3ccc(N4CCC(O)CC4)cc3)nc2N2c3ccccc3C[C@@H]12
pIC50 [6]: 6.57

Structure (SMILES): N=C(NCCCSC[C@H]1O[C@@H](n2cnc3c(N)ncnc32)[C@H](O)[C@@H]1O)NCCC[C@H](N)C(N)=O
pIC50 [2]: 5.52

Structure (SMILES): CC(=O)N(CCO)CC(=O)NCC(=O)N(CCCNC(=N)CCl)CC(=O)NCC(=O)N(CCCCN)CC(=O)NCC(=O)NCC(=O)N(CCCCN)CC(=O)NCC(=O)N(CC(=O)NCC(=O)N(CCCCN)CC(=O)NCC(=O)NCC(=O)N(C)CC(=O)N(CCCCN)CC(N)=O)CC(C)C (Ac-[Gly(N-CH2CH2OH)]G[X1]G[Nlys]GG[Nlys]G[Nleu]G[Nlys]GG[Sar][Nlys]-NH2)
pIC50 [8]: 5.06 | pIC50 (MDA-MB-468): < 3.30 | pIC50 (HCT-116): < 3.30

Structure (SMILES): CC(C)CN(CC(=O)NCC(=O)N(CCCCN)CC(=O)NCC(=O)NCC(=O)N(C)CC(=O)N(CCCCN)CC(N)=O)C(=O)CNC(=O)CN(CCCCN)C(=O)CNC(=O)CNC(=O)CN(CCCCN)C(=O)CNC(=O)CN(CCCNC(=N)N)C(=O)CNC(=O)CNCCO (H-[Gly(N-CH2CH2OH)]G[Gly(N-(CH2)3-guanidino)]G[Nlys]GG[Nlys]G[Nleu]G[Nlys]GG[Sar][Nlys]-NH2)
pIC50 [2]: 3.40

Structure (SMILES): CC(C)CN(CC(=O)NCC(=O)N(CCCCN)CC(=O)NCC(=O)NCC(=O)N(C)CC(=O)N(CCCCN)CC(N)=O)C(=O)CNC(=O)CN(CCCCN)C(=O)CNC(=O)CNC(=O)CN(CCCCN)C(=O)CNC(=O)CN(CCCNC(=N)CCl)C(=O)CNC(=O)CNCCO (H-[Gly(N-CH2CH2OH)]G[X1]G[Nlys]GG[Nlys]G[Nleu]G[Nlys]GG[Sar][Nlys]-NH2)
pIC50 (MDA-MB-468): < 3.30 | pIC50 (HCT-116): < 3.30

Now from value to compound:

pIC50 [2]: 5.23 | pIC50 [3]: 8.55 | pIC50 [4]: 9.40 | pIC50 [5]: 9.40
Structure (SMILES): N=C(N)NCCC[C@H](NC(=O)CN)C(=O)N[C@@H](CCCNC(=N)NCCCSC[C@H]1O[C@@H](n2cnc3c(N)ncnc32)[C@H](O)[C@@H]1O)C(N)=O

pIC50 [2]: 5.27 | pIC50 [7]: 4.96
Structure (SMILES): CC(=O)N[C@@H](CO)C(=O)NCC(=O)N[C@@H](CCCNC(=N)NCCC[C@H]1O[C@@H](n2cnc3c(N)ncnc32)[C@H](O)[C@@H]1O)C(=O)NCC(=O)N[C@@H](CCCCN)C(=O)NCC(=O)NCC(=O)N[C@@H](CCCCN)C(N)=O (Ac-SG[X2]GKGGK-NH2)
